Patent US20040018501A1, “Methods and systems for analyzing complex biological systems” (priority 2001, published 2004)

Legend:
Format in all cases: cell-based
[1] = test system: Saccharomyces cerevisiae wild type strain BY4743; experiment: AF1 yeast gene expression analysis (microarray); details: p < 0.05, KEGG mapping
Description: Saccharomyces cerevisiae wild type strain BY4743 was purchased from American Type Culture Center (ATCC, Manassas, Va.). The yeast strain was grown in YPD or SD media. […] The cultures started from fresh single colonies were grown in 1.0 ml YPD overnight at 30° C. […] The OD600 was adjusted to 1.0 with YPD media, then 2.0 ml of each was inoculated into three 250 ml flasks, each containing 50 ml of SD media. […] The cells were kept growing for another two hours, then collected by centrifugation at 4000 rpm for 5 minutes at 4° C. Pellets were washed once with ice-cold water, then were lyophilized overnight at 4° C. […] RNA quality was determined using the Bioanalyzer 2100 and the RNA 6000 assay (Agilent Technologies, Palo Alto, Calif.) according to manufacturer's instructions. RNA concentrations were determined spectrophotometrically by measuring the absorption at 260 nm in an Ultrospec 2000 (Pharmacia Biotech, Piscataway, N.J.). […] Labeled cRNAs were evaluated using the RNA 6000 assay on the Agilent Bioanalyzer 2100. Labeled cRNA concentrations were determined spectrophotometrically by measuring the absorption at 260 nm in an Ultrospec 2000 (Pharmacia Biotech, Piscataway, N.J.). […] Each feature was determined from an array's associated pattern file and a detection algorithm. […] Data was evaluated after combining results from fluor reversal replicate hybridizations. […]

[2] = test system: Saccharomyces cerevisiae wild type strain BY4743; experiment: AF1 combined gene expression and metabolite mapping to KEGG reactions and pathways
From the text: In AF1, two different technologies were utilized: gene expression analysis (for examination of mRNA expression) and metabolite analysis. […] As noted previously, existing metabolic databases may be helpful in practicing the methods and systems of the present invention, but many databases include limitations that make their use in data analysis and pathway mapping less than straightforward. […] This caveat to KEGG makes it difficult to pinpoint the correct pathway when attempting to link a gene to a specific pathway. […] The pathway score indicates how meaningful the mapping is, or how likely it is to be correctly indicative of the pathway involved in the perturbation under examination. The method provides a pathway score based on perturbation levels of genes and/or compounds and the information content of each gene and/or compound in the pathway, i.e., a pathway score indicates the extent to which other pathways are mapped to a gene/compound. […] Degree of perturbation can be calculated, for example, based on a number of standard deviations from a norm, and included in an equation such as the one shown above, so that not only the number of pathways is taken into account, but also accounts for the amount of gene transcript or compound present as compared to a control. […] Of the 676 compounds under consideration, 77 were detected in the AF1 samples. […]

[3] = test system: Saccharomyces cerevisiae wild type strain BY4743; experiment: AF1 yeast metabolite analysis by GC-MS and LC-MS; details: for # Compounds perturbed: 2×MIC, two hours

SMILES: C[C@@H]1[C@H](O)[C@@H](C)/C=C/C=C/C=C/C=C/C=C/C=C/C=C/[C@H](O[C@@H]2O[C@H](C)[C@@H](O)[C@H](N)[C@@H]2O)C[C@@H]2O[C@](O)(C[C@@H](O)C[C@@H](O)[C@H](O)CC[C@@H](O)C[C@@H](O)CC(=O)O[C@H]1C)C[C@H](O)[C@H]2C(=O)O [Amphoteracin B]
- # Pathways Affected by at Least One Gene [1]: 97
- Number of Reactions Having an Enzyme and at Least One Compound Perturbed [2]: 54
- # Compounds perturbed ([3]; P < 0.05): 16
- # Compounds perturbed ([3]; P < 0.1): 21
- Fold Change of campesterol ([3]; platform GC): 0
- Fold Change of desmosterol ([3]; platform GC): 0
- Fold Change of octadecanoic acid ([3]; platform GC): 0.21
- Fold Change of abscisic acid ([3]; platform LC): 0
- Fold Change of adenosine ([3]; platform LC): 0
- Fold Change of riboflavin ([3]; platform LC): 0
- Fold Change of 4-methylcatechol ([3]; platform nLC): 0
- Fold Change of 5hydroxyLtryptophan ([3]; platform nLC): 0
- Fold Change of 6-benzylaminopurine ([3]; platform nLC): 0
- Fold Change of NacetylDglucosamine ([3]; platform nLC): 0
- Fold Change of NacetylLornithine ([3]; platform nLC): 0
- Fold Change of abscisic acid ([3]; platform nLC): 0
- Fold Change of adenine ([3]; platform nLC): 0
- Fold Change of adenosine ([3]; platform nLC): 0
- Fold Change of anthranilic acid ([3]; platform nLC): 0
- Fold Change of argininosuccinate ([3]; platform nLC): 0
- Fold Change of benzoic acid ([3]; platform nLC): 0
- Fold Change of catechol ([3]; platform nLC): 0
- Fold Change of cinnamic acid ([3]; platform nLC): 0
- Fold Change of citricanoic/itaconi ([3]; platform nLC): 0
- Fold Change of coumaric acid ([3]; platform nLC): 0
- Fold Change of cytosine ([3]; platform nLC): 0
- Fold Change of diaminopimelic acid ([3]; platform nLC): 0
- Fold Change of dihydrofolic acid ([3]; platform nLC): 0
- Fold Change of estrone ([3]; platform nLC): 0
- Fold Change of farnesol ([3]; platform nLC): 0
- Fold Change of folic acid ([3]; platform nLC): 0
- Fold Change of gibberellic ([3]; platform nLC): 0
- Fold Change of glutamine/lysine ([3]; platform nLC): 0.07919
- Fold Change of guanine ([3]; platform nLC): 0
- Fold Change of histidine ([3]; platform nLC): 0
- Fold Change of homogentisic/uric ([3]; platform nLC): 0
- Fold Change of hydrocortisone ([3]; platform nLC): 0
- Fold Change of indole3pyruvic acid ([3]; platform nLC): 0
- Fold Change of jasmonic acid ([3]; platform nLC): 0
- Fold Change of kinetin ([3]; platform nLC): 0
- Fold Change of luteolin ([3]; platform nLC): 0
- Fold Change of malonic acid ([3]; platform nLC): 0
- Fold Change of methionine ([3]; platform nLC): 0
- Fold Change of phenylpyruvic acid ([3]; platform nLC): 0
- Fold Change of phosphoenolpyruvate ([3]; platform nLC): 0
- Fold Change of pinitol ([3]; platform nLC): 0
- Fold Change of porphobilinogen ([3]; platform nLC): 0
- Fold Change of retinoic acid ([3]; platform nLC): 0
- Fold Change of salicylic/HObenzoic ([3]; platform nLC): 0
- Fold Change of shikimic acid ([3]; platform nLC): 0
- Fold Change of sinapinic acid ([3]; platform nLC): 0
- Fold Change of thymine ([3]; platform nLC): 0
- Fold Change of urocanic acid ([3]; platform nLC): 0
- Fold Change of xanthosineDiH2O ([3]; platform nLC): 0
- Fold Change of zeatin ([3]; platform nLC): 0
- Fold Change of 4-aminobenzoic acid ([3]; platform pLC): 0
- Fold Change of 4-methylcatechol ([3]; platform pLC): 0
- Fold Change of 5hydroxyLtryptophan ([3]; platform pLC): 0
- Fold Change of 6benzylaminopurine ([3]; platform pLC): 0
- Fold Change of NacetylDglucosamine ([3]; platform pLC): 0
- Fold Change of NacetylLglutamate ([3]; platform pLC): 0
- Fold Change of allantoic acid ([3]; platform pLC): 0
- Fold Change of anthranilic acid ([3]; platform pLC): 0
- Fold Change of argininosuccinate ([3]; platform pLC): 0
- Fold Change of biotin ([3]; platform pLC): 0
- Fold Change of caffeine ([3]; platform pLC): 0
- Fold Change of citric acid TME ([3]; platform pLC): 0
- Fold Change of cytidine ([3]; platform pLC): 0
- Fold Change of cytosine ([3]; platform pLC): 0
- Fold Change of diaminopimelic acid ([3]; platform pLC): 0
- Fold Change of dihydrofolic acid ([3]; platform pLC): 0
- Fold Change of dipicolinic acid ([3]; platform pLC): 0
- Fold Change of folic acid ([3]; platform pLC): 0
- Fold Change of glucosamine ([3]; platform pLC): 0
- Fold Change of glucosamine6PO4 ([3]; platform pLC): 0
- Fold Change of histidine ([3]; platform pLC): 0
- Fold Change of hydrocortisone ([3]; platform pLC): 0
- Fold Change of itaconic acid dimes ([3]; platform pLC): 0
- Fold Change of kinetin ([3]; platform pLC): 0
- Fold Change of luteolin ([3]; platform pLC): 0
- Fold Change of niacinamide ([3]; platform pLC): 0
- Fold Change of nopaline ([3]; platform pLC): 0
- Fold Change of phosphoenolpyruvate ([3]; platform pLC): 0
- Fold Change of progesterone ([3]; platform pLC): 0
- Fold Change of sugar-phosphate ([3]; platform pLC): 0
- Fold Change of thiamine ([3]; platform pLC): 0
- Fold Change of thymine ([3]; platform pLC): 0
- Fold Change of tryptophan ([3]; platform pLC): 0
- Fold Change of urocanic acid ([3]; platform pLC): 0
- Fold Change of xanthosine(diH2O) ([3]; platform pLC): 0
- Fold Change of zeatin ([3]; platform pLC): 0
